# Patent US20210255193A1, “LYSINE REACTIVE PROBES AND USES THEREOF” (The Scripps Research Institute, priority 2017, published 2021)
# Experiments:
# [1] = target: T1, KIAA1033 WASH complex subunit 7 (Homo sapiens, UniProt Q2M389); assay: competitive isoTOP-ABPP; type: binding; conditions: for R value (DMSO/fragment) for probe 1 labeling: Q2M389_K302; for R value (DMSO/fragment) for probe 1 labeling / isoTOP-ABPP reactivity ratio at lysine Q2M389_K302 / isoTOP-ABPP ratio (R) at liganded lysine Q2M389_K302: 50 uM, in vitro; for R value (DMSO/fragment) for probe 1 labeling / isoTOP-ABPP reactivity ratio at lysine Q2M389_K302: 231 sol; for isoTOP-ABPP ratio (R) at liganded lysine Q2M389_K302: sol, 231
# T1 construct: isoTOP-ABPP experiments performed in cell lysates (in vitro); endogenous in cells; host or cells: soluble proteome of human cancer cell lines (MDA-MB-231; Ramos and Jurkat also prepared)
# T1 sequence (Q2M389 1-1173): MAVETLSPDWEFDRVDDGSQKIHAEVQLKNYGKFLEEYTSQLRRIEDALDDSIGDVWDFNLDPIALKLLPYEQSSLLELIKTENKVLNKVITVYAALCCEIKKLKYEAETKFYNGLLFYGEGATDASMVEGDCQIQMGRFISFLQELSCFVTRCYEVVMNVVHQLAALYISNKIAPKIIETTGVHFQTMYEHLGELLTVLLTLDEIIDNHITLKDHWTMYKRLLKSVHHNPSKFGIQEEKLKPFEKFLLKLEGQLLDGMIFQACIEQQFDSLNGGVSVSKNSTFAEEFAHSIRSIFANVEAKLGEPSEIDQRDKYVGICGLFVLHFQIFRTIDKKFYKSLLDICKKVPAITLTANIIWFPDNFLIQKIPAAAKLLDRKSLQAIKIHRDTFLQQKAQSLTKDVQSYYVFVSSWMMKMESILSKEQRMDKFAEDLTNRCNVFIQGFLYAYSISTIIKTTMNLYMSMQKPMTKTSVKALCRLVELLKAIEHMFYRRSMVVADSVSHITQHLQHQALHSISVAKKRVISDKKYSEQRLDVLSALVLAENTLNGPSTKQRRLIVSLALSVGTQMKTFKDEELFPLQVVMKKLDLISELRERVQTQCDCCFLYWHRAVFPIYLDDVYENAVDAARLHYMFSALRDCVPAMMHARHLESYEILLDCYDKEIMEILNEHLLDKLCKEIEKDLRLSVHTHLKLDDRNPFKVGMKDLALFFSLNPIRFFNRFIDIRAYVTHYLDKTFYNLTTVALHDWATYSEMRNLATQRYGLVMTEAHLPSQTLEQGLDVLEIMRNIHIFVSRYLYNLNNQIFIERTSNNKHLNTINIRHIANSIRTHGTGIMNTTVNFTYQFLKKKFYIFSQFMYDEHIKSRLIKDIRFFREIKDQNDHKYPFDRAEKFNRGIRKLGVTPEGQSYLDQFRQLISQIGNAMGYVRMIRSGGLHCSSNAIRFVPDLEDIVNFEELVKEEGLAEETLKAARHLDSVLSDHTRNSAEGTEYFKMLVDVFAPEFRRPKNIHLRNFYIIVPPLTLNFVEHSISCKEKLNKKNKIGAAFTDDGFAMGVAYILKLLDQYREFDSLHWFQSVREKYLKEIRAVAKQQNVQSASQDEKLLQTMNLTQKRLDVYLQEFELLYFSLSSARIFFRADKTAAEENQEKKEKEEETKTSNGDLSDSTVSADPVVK
# Outline: (§1)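 Lysate + fragment (50 μM activated ester / 100 μM guanidinylating agent) or DMSO → 0.1 mM STP-alkyne, 1 h, RT → CuAAC to TEV tags (compound light, DMSO heavy) → LC-MS. R = heavy/light MS1 area; liganded lysine if R≥4.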
# [2] = target: T2, ARL6IP1 ADP-ribosylation factor-like protein 6-interacting (Homo sapiens, UniProt Q15041); assay: competitive isoTOP-ABPP; type: binding; conditions: for R value (DMSO/fragment) for probe 1 labeling: Q15041_K188; for R value (DMSO/fragment) for probe 1 labeling / isoTOP-ABPP reactivity ratio at lysine Q15041_K188 / isoTOP-ABPP ratio (R) at liganded lysine Q15041_K188: 50 uM, in vitro; for R value (DMSO/fragment) for probe 1 labeling / isoTOP-ABPP reactivity ratio at lysine Q15041_K188: 231 sol; for isoTOP-ABPP ratio (R) at liganded lysine Q15041_K188: sol, 231
# T2 construct: isoTOP-ABPP experiments performed in cell lysates (in vitro); endogenous in cells; host or cells: soluble proteome of human cancer cell lines (MDA-MB-231; Ramos and Jurkat also prepared)
# Outline: as §1
# T2 sequence (Q15041 whole entry, the tested form may be a part): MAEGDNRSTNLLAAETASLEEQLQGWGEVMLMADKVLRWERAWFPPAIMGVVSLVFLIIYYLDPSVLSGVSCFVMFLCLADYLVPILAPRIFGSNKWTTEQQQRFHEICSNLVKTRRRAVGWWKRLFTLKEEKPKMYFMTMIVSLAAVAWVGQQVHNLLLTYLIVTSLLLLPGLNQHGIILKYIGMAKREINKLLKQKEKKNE
smiles,measurement,setting,value
"O=C(CCc1cn(-c2ccccc2)nc1-c1ccccc1)Oc1c(F)c(F)c(F)c(F)c1F [fragment 19, Pentafluorophenyl 3-(1,3-diphenyl-1H-pyrazol-4-yl)propanoate]",R value (DMSO/fragment) for probe 1 labeling,[1],0.8
"O=C(Oc1c(F)c(F)c(F)c(F)c1F)C(c1ccccc1)c1ccccc1 [fragment 20, Pentafluorophenyl 2,2-diphenylacetate]",R value (DMSO/fragment) for probe 1 labeling,[2],1.8
same,R value (DMSO/fragment) for probe 1 labeling,[1],0.9
"O=C(Oc1c(F)c(F)c(F)c(F)c1F)c1cc(C(F)(F)F)cc(C(F)(F)F)c1 [fragment 21, Pentafluorophenyl 3,5-bis(trifluoromethyl)benzoate]",R value (DMSO/fragment) for probe 1 labeling,[2],3.9
"Cn1cc(CC(=O)Oc2c(F)c(F)c(F)c(F)c2F)c2ccccc21 [fragment 22, Pentafluorophenyl 2-(1-methyl-1H-indol-3-yl)acetate]",R value (DMSO/fragment) for probe 1 labeling,[1],3.6
"COc1cc(CCC(=O)Oc2c(F)c(F)c(F)c(F)c2F)cc(OC)c1OC [fragment 23, Pentafluorophenyl 3-(3,4,5-trimethoxyphenyl)propanoate]",R value (DMSO/fragment) for probe 1 labeling,[1],1.5
"O=C(Oc1c(F)c(F)c(F)c(F)c1F)C1CCN(C(=O)OCc2ccccc2)CC1 [fragment 24, 1-Benzyl 4-(pentafluorophenyl) piperidine-1,4-dicarboxylate]",isoTOP-ABPP reactivity ratio at lysine Q15041_K188,[2],2.4
same,isoTOP-ABPP reactivity ratio at lysine Q2M389_K302,[1],1.0
"O=C(CCc1coc2cc(F)ccc2c1=O)Oc1c(F)c(F)c(F)c(F)c1F [fragment 26, Pentafluorophenyl 3-(7-fluoro-4-oxo-4H-chromen-3-yl)propanoate]",isoTOP-ABPP reactivity ratio at lysine Q2M389_K302,[1],1.8
"O=C(CCc1cn(-c2ccccc2)nc1-c1ccccc1)Oc1ccc([N+](=O)[O-])cc1[N+](=O)[O-] [fragment 29, 2,4-Dinitrophenyl 3-(1,3-diphenyl-1H-pyrazol-4-yl)propanoate]",isoTOP-ABPP reactivity ratio at lysine Q2M389_K302,[1],1.1
"O=C(Oc1ccc([N+](=O)[O-])cc1[N+](=O)[O-])C(c1ccccc1)c1ccccc1 [fragment 30, 2,4-Dinitrophenyl 2,2-diphenylacetate]",isoTOP-ABPP reactivity ratio at lysine Q2M389_K302,[1],1.6
"Cn1cc(CC(=O)Oc2ccc([N+](=O)[O-])cc2[N+](=O)[O-])c2ccccc21 [fragment 32, 2,4-Dinitrophenyl 2-(1-methyl-1H-indol-3-yl)acetate]",isoTOP-ABPP reactivity ratio at lysine Q15041_K188,[2],5.9
"COc1cc(CCC(=O)Oc2ccc([N+](=O)[O-])cc2[N+](=O)[O-])cc(OC)c1OC [fragment 33, 2,4-Dinitrophenyl 3-(3,4,5-trimethoxyphenyl)propanoate]",isoTOP-ABPP reactivity ratio at lysine Q15041_K188,[2],1.3
same,isoTOP-ABPP reactivity ratio at lysine Q2M389_K302,[1],0.9
"O=C(Oc1ccc([N+](=O)[O-])cc1[N+](=O)[O-])c1ccc2ccccc2n1 [fragment 35, 2,4-Dinitrophenyl quinoline-2-carboxylate]",isoTOP-ABPP ratio (R) at liganded lysine Q15041_K188,[2],1.4
same,isoTOP-ABPP ratio (R) at liganded lysine Q2M389_K302,[1],1.4
"O=C(CCc1coc2cc(F)ccc2c1=O)Oc1ccc([N+](=O)[O-])cc1[N+](=O)[O-] [fragment 36, 2,4-Dinitrophenyl 3-(7-fluoro-4-oxo-4H-chromen-3-yl)propanoate]",isoTOP-ABPP ratio (R) at liganded lysine Q15041_K188,[2],1.6
same,isoTOP-ABPP ratio (R) at liganded lysine Q2M389_K302,[1],1.2
"O=C(Oc1ccc([N+](=O)[O-])cc1[N+](=O)[O-])c1ccc(-c2ccccc2)cc1 [fragment 37, 2,4-Dinitrophenyl [1,1′-biphenyl]-4-carboxylate]",isoTOP-ABPP ratio (R) at liganded lysine Q15041_K188,[2],1.8
same,isoTOP-ABPP ratio (R) at liganded lysine Q2M389_K302,[1],0.9
"O=C(Oc1ccc([N+](=O)[O-])cc1[N+](=O)[O-])c1ccc(Oc2ccccc2)cc1 [fragment 39, 2,4-Dinitrophenyl 4-phenoxybenzoate]",isoTOP-ABPP ratio (R) at liganded lysine Q15041_K188,[2],1.7
same,isoTOP-ABPP ratio (R) at liganded lysine Q2M389_K302,[1],1.2
"O=C(Oc1ccc([N+](=O)[O-])cc1[N+](=O)[O-])c1ccccc1Nc1cccc(C(F)(F)F)c1 [fragment 40, 2,4-Dinitrophenyl 2-((3-(trifluoromethyl)phenyl)amino)benzoate]",isoTOP-ABPP ratio (R) at liganded lysine Q2M389_K302,[1],0.9
"CC(C)(C)OC(=O)NCCCC(=O)Oc1ccc([N+](=O)[O-])cc1[N+](=O)[O-] [fragment 41, 2,4-Dinitrophenyl 4-((tert-butoxycarbonyl)amino)butanoate]",isoTOP-ABPP ratio (R) at liganded lysine Q15041_K188,[2],1.3
same,isoTOP-ABPP ratio (R) at liganded lysine Q2M389_K302,[1],1.5
"O=C(Oc1ccc([N+](=O)[O-])cc1[N+](=O)[O-])C(c1ccccc1)(c1ccccc1)c1ccccc1 [fragment 42, 2,4-Dinitrophenyl 2,2,2-triphenylacetate]",isoTOP-ABPP ratio (R) at liganded lysine Q15041_K188,[2],1.1
"CC(=O)Oc1ccc([N+](=O)[O-])cc1[N+](=O)[O-] [fragment 43, 2,4-Dinitrophenyl acetate]",isoTOP-ABPP ratio (R) at liganded lysine Q15041_K188,[2],1.4
"N#Cc1ccc(C(=O)Oc2ccc([N+](=O)[O-])cc2[N+](=O)[O-])cc1 [fragment 44, 2,4-Dinitrophenyl 4-cyanobenzoate]","isoTOP-ABPP ratio, lysine Q15041_K188",[2]; 50 uM_231_sol_in vitro,1.1
same,"isoTOP-ABPP ratio, lysine Q2M389_K302",[1]; 50 uM_231_sol_in vitro,1.3
"O=C(CCc1ccc2c(c1)OCO2)Oc1ccc([N+](=O)[O-])cc1[N+](=O)[O-] [fragment 45, 2,4-Dinitrophenyl 3-(benzo[d][1,3]dioxol-5-yl)propanoate]","isoTOP-ABPP ratio, lysine Q15041_K188",[2]; 50 uM_231_sol_in vitro,2.2
same,"isoTOP-ABPP ratio, lysine Q2M389_K302",[1]; 50 uM_231_sol_in vitro,1.2
"O=C(ON1C(=O)CCC1=O)c1cc(C(F)(F)F)cc(C(F)(F)F)c1 [fragment 46, 3,5-Bis(trifluoromethyl)benzoic acid NHS ester]","isoTOP-ABPP ratio, lysine Q15041_K188",[2]; 50 uM_231_sol_in vitro,1.2
"O=C(Oc1c(F)c(F)c(C(F)(F)F)c(F)c1F)c1cc(C(F)(F)F)cc(C(F)(F)F)c1 [fragment 47, 2,3,5,6-Tetrafluoro-4-(trifluoromethyl)phenyl 3,5-bis(trifluoromethyl)benzoate]","isoTOP-ABPP ratio, lysine Q15041_K188",[2]; 50 uM_231_sol_in vitro,3.5
"O=C(Oc1c(F)c(F)cc(F)c1F)c1cc(C(F)(F)F)cc(C(F)(F)F)c1 [fragment 48, 2,3,5,6-Tetrafluorophenyl 3,5-bis(trifluoromethyl)benzoate]","isoTOP-ABPP ratio, lysine Q15041_K188",[2]; 50 uM_231_sol_in vitro,3.5
"CC(C)(C)OC(=O)N=C(NC(=O)OC(C)(C)C)n1cccn1 [fragment 50, reference compound]","isoTOP-ABPP ratio, lysine Q15041_K188",[2]; 100 uM_231_sol_in vitro,3.4
same,"isoTOP-ABPP ratio, lysine Q2M389_K302",[1]; 100 uM_231_sol_in vitro,5.3
"NC(=O)c1cc(C(F)(F)F)cc(C(F)(F)F)c1 [fragment 51, reference compound]","isoTOP-ABPP ratio, lysine Q2M389_K302",[1]; 50 uM_231_sol_in vitro,1.5
